pEC50, pIC50: −log10 of the molar value. Read-outs that look alike come from different tables or passages of the source.
Legend:
Experiment in all cases: 72-hour CellTiter-Glo 2.0 growth inhibition screen (single agent, 9x9 combination dose matrix);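 on Best CI Level: inhibition effect level at which the best CI was calculated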
Type in all cases: cell-based
HCC1171 = system: HCC1171;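 on Best CI Level: inhibition effect level at which the best CI was calculated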
Gp2D = details: for pEC50: GP2d
TOV-21G = system: TOV-21G;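 on Best CI Level: inhibition effect level at which the best CI was calculated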
SW48 KRAS (G12D/+) = details: for pEC50: SW48, 72 h, read-out: EC50
[1] = HCC1171 (KRAS G12C), enhancer + MEI-522 (Voruciclib), 72 h;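 on Best CI Level: inhibition effect level at which the best CI was calculated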
[2] = HCC1171, Lung, Additional Single Agent Responses (inhibition, % I), 72 h
[3] = enhancer combined with MEI-522 (Voruciclib), HCC1171 (Lung), 72 hours, inhibition data
[4] = Gp2D (KRAS G12D), enhancer + MEI-522 (Voruciclib), 72 h;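 on Best CI Level: inhibition effect level at which the best CI was calculated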
[5] = Gp2D, Colorectal, Additional Single Agent Responses (inhibition, % I), 72 h
[6] = enhancer combined with MEI-522 (Voruciclib), Gp2D (Colorectal), 72 hours, inhibition data
[7] = TOV-21G (KRAS G13C), enhancer + MEI-522 (Voruciclib), 72 h;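 on Best CI Level: inhibition effect level at which the best CI was calculated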
[8] = enhancer combined with MEI-522 (Voruciclib), TOV-21G (Ovary), 72 hours, inhibition data
[9] = Homo sapiens, SW48 KRAS (G12D/+), Colorectal, Additional Single Agent Responses (inhibition, % I), 72 h
[10] = Homo sapiens, SW48 KRAS (G12D/+), Colorectal, growth inhibition (GI) curve, single agent, 72 h
[11] = SW48 KRAS (G12D/+), enhancer + MEI-522 (Voruciclib), 72 h
[12] = enhancer combined with MEI-522 (Voruciclib), SW48 KRAS (G12D/+) (Colorectal), 72 hours, inhibition data

- pEC50 (HCC1171; [2]): 8.33
- GI50 (HCC1171; HCC1171, Lung, growth inhibition (GI) curve, single agent, 72 h): 5.3 nM
- pEC50 (SW48 KRAS (G12D/+); [9]): 8.39
- pEC50 (SW48 KRAS (G12D/+); [10]): 8.38
- pIC50 (SW48 KRAS (G12D/+); [9]): 8.32
- GI50 (SW48 KRAS (G12D/+); [10]): 4.3 nM
SMILES: CC[C@@H]1C(=O)N(C)c2cnc(Nc3ccc(C(=O)N[C@H]4CC[C@H](N5CCN(CC6CC6)CC5)CC4)cc3OC)nc2N1C(C)C [Volasertib]
- Best CI (HCC1171; [1]): 0.95
- Bliss Volume (HCC1171; [1]): −2.15
- HSA volume (HCC1171; [1]): −1.49
- Loewe Volume (HCC1171; [1]): −1.27
- Synergy Score (HCC1171; [1]): 2.07
- Response Area (HCC1171; [2]): 1.99
- Emax (HCC1171; HCC1171, Lung, Additional Single Agent Responses, 72 h, read-out: Max Response (% I)): 45%
- Response Area (HCC1171; HCC1171, Lung, growth inhibition (GI), AUC, single agent, 72 h): 3.40
- Emax (HCC1171; HCC1171, Lung, growth inhibition (GI), single agent, 72 h, read-out: Max Response (% GI)): 79%
- Best CI (HCC1171; [3]): 0.79
- Bliss Volume (HCC1171; [3]): −3.18
- HSA volume (HCC1171; [3]): −0.81
- Loewe Volume (HCC1171; [3]): −0.71
- Synergy Score (HCC1171; [3]): 0.73
- Best CI Level (HCC1171; enhancer combined with MEI-522 (Voruciclib), HCC1171 (Lung), 72 hours, inhibition data, unit assumed): 50%
- pEC50 (Gp2D; 72 h, Colorectal, Additional Single Agent Responses (inhibition, % I)): 8.68
- pEC50 (Gp2D; 72 h, Colorectal, growth inhibition (GI) curve, single agent): 8.60
- Best CI (Gp2D; [4]): 0.59
- Bliss Volume (Gp2D; [4]): 9.40
- HSA volume (Gp2D; [4]): 0.44
- Loewe Volume (Gp2D; [4]): 1.73
- Synergy Score (Gp2D; [4]): 15.26
- pIC50 (Gp2D; [5]): 8.62
- Response Area (Gp2D; [5]): 4.53
- Emax (Gp2D; Gp2D, Colorectal, Additional Single Agent Responses, 72 h, read-out: Max Response (% I)): 91%
- GI50 (Gp2D; Gp2D, Colorectal, growth inhibition (GI) curve, single agent, 72 h): 2.2 nM
- Response Area (Gp2D; Gp2D, Colorectal, growth inhibition (GI), AUC, single agent, 72 h): 6.83
- Emax (Gp2D; Gp2D, Colorectal, growth inhibition (GI), single agent, 72 h, read-out: Max Response (% GI)): 161%
- Best CI (Gp2D; [6]): 0.16
- Best CI Level (Gp2D; [6]): 80
- Bliss Volume (Gp2D; [6]): −1.26
- HSA volume (Gp2D; [6]): −0.27
- Loewe Volume (Gp2D; [6]): −0.15
- Synergy Score (Gp2D; [6]): 2.39
- pEC50 (TOV-21G; Homo sapiens, TOV21G, 72 h, TOV-21G, Ovary, Additional Single Agent Responses (inhibition, % I)): 8.00
- pEC50 (TOV-21G; Homo sapiens, TOV21G, 72 h, TOV-21G, Ovary, growth inhibition (GI) curve, single agent): 7.86
- pIC50 (TOV-21G; Homo sapiens, TOV21G, TOV-21G, Ovary, Additional Single Agent Responses (inhibition, % I), 72 h): 7.94
- Emax (TOV-21G; Homo sapiens, TOV21G, TOV-21G, Ovary, Additional Single Agent Responses, 72 h, read-out: Max Response (% I)): 89%
- GI50 (TOV-21G; Homo sapiens, TOV21G, TOV-21G, Ovary, growth inhibition (GI) curve, single agent, 72 h): 8.4 nM
- Emax (TOV-21G; Homo sapiens, TOV21G, TOV-21G, Ovary, growth inhibition (GI), single agent, 72 h, read-out: Max Response (% GI)): 163%
- Best CI (TOV-21G; [7]): 0.56
- Bliss Volume (TOV-21G; [7]): 2.45
- HSA volume (TOV-21G; [7]): −4.18
- Loewe Volume (TOV-21G; [7]): −6.03
- Synergy Score (TOV-21G; [7]): 1.71
- Response Area (TOV-21G; TOV-21G, Ovary, Additional Single Agent Responses (inhibition, % I), 72 h): 4.33
- Response Area (TOV-21G; TOV-21G, Ovary, growth inhibition (GI), AUC, single agent, 72 h): 7.56
- Best CI (TOV-21G; [8]): 0.76
- Best CI Level (TOV-21G; [8]): 20
- Bliss Volume (TOV-21G; [8]): −1.60
- HSA volume (TOV-21G; [8]): −1.29
- Loewe Volume (TOV-21G; [8]): −1.80
- Synergy Score (TOV-21G; [8]): 0.60
- Emax (SW48 KRAS (G12D/+); Homo sapiens, SW48 KRAS (G12D/+), Colorectal, Additional Single Agent Responses, 72 h, read-out: Max Response (% I)): 86%
- Emax (SW48 KRAS (G12D/+); Homo sapiens, SW48 KRAS (G12D/+), Colorectal, growth inhibition (GI), single agent, 72 h, read-out: Max Response (% GI)): 148%
- Response Area (SW48 KRAS (G12D/+); SW48 KRAS (G12D/+), Colorectal, Additional Single Agent Responses (inhibition, % I), 72 h): 3.32
- Response Area (SW48 KRAS (G12D/+); SW48 KRAS (G12D/+), Colorectal, growth inhibition (GI), AUC, single agent, 72 h): 5.01
- Best CI (SW48 KRAS (G12D/+); [11]): 0.06
- Bliss Volume (SW48 KRAS (G12D/+); [11]): 8.36
- HSA volume (SW48 KRAS (G12D/+); [11]): 1.07
- Loewe Volume (SW48 KRAS (G12D/+); [11]): 3.66
- Synergy Score (SW48 KRAS (G12D/+); [11]): 13.34
- Best CI (SW48 KRAS (G12D/+); [12]): 0.08
- Bliss Volume (SW48 KRAS (G12D/+); [12]): 0.41
- HSA volume (SW48 KRAS (G12D/+); [12]): 0.61
- Loewe Volume (SW48 KRAS (G12D/+); [12]): 2.08
- Synergy Score (SW48 KRAS (G12D/+); [12]): 4.06
- Best CI Level (SW48 KRAS (G12D/+); enhancer combined with MEI-522 (Voruciclib), SW48 KRAS (G12D/+) (Colorectal), 72 hours, inhibition data, unit assumed): 80%

Reference: patent US20240016781A1, “TREATMENT OF KRAS MUTANT CANCERS” (MEI Pharma, Inc., priority 2020, published 2024)
